Toxic doses and inconclusive results are not listed. Rule for the calls: active = survival T/C of 150% or more; inactive = T/C below 125% in these data.
Test system: CD2F1 mice, L1210 leukemia ip, survival T/C
Assay: NCI In Vivo Anticancer Drug Screen. Data for tumor model L1210 Leukemia (intraperitoneal) in CD2F1 (CDF1) mice
Conditions: higher = longer survival
In short: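 Antitumor effect is scored in animals hosting a serially transplanted tumor. Values compare compound-dosed animals against vehicle-only controls as a simple quotient.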

[1] = endpoint: mean survival time, dose: 100.0 mg/kg/injection, schedule: Q01DX001 (ip), vehicle: saline
[2] = endpoint: mean survival time, dose: 200.0 mg/kg/injection, schedule: Q01DX001 (ip), vehicle: saline
[3] = endpoint: mean survival time, dose: 400.0 mg/kg/injection, schedule: Q01DX001 (ip), vehicle: saline
[4] = endpoint: mean survival time, dose: 100.0 mg/kg/injection, schedule: Q04DX002 (ip), vehicle: saline with Tween-80
[5] = endpoint: mean survival time, dose: 200.0 mg/kg/injection, schedule: Q04DX002 (ip), vehicle: saline with Tween-80
[6] = endpoint: mean survival time, dose: 400.0 mg/kg/injection, schedule: Q04DX002 (ip), vehicle: saline with Tween-80
[7] = endpoint: mean survival time, dose: 100.0 mg/kg/injection, schedule: Q04DX003 (ip), vehicle: saline with Tween-80
[8] = endpoint: mean survival time, dose: 200.0 mg/kg/injection, schedule: Q04DX003 (ip), vehicle: saline with Tween-80
[9] = endpoint: mean survival time, dose: 400.0 mg/kg/injection, schedule: Q04DX003 (ip), vehicle: saline with Tween-80
[10] = endpoint: mean survival time, dose: 100.0 mg/kg/injection, schedule: Q04DX003 (ip), vehicle: saline
[11] = endpoint: mean survival time, dose: 200.0 mg/kg/injection, schedule: Q04DX003 (ip), vehicle: saline
[12] = endpoint: mean survival time, dose: 400.0 mg/kg/injection, schedule: Q04DX003 (ip), vehicle: saline
[13] = endpoint: median survival time, dose: 50.0 mg/kg/injection, schedule: Q01DX005 (ip), vehicle: saline

Measured: T/C

O=S(=O)(O)c1ccc(O)cc1
inactive: [1] 103 % of control | [2] 108 % of control | [3] 100 % of control

CN(C)c1ccc(/C=N/NC(=O)c2ccccc2)cc1
inactive: endpoint: mean survival time, dose: 3.12 mg/kg/injection, schedule: Q04DX003 (ip), vehicle: saline with Tween-80 90 % of control | endpoint: mean survival time, dose: 6.25 mg/kg/injection, schedule: Q04DX003 (ip), vehicle: saline with Tween-80 96 % of control | endpoint: mean survival time, dose: 12.5 mg/kg/injection, schedule: Q04DX003 (ip), vehicle: saline with Tween-80 94 % of control

CC(=O)c1ccc(N=C=O)cc1
inactive: endpoint: mean survival time, dose: 25.0 mg/kg/injection, schedule: Q01DX001 (ip), vehicle: saline with Tween-80 100 % of control | endpoint: mean survival time, dose: 50.0 mg/kg/injection, schedule: Q01DX001 (ip), vehicle: saline with Tween-80 88 % of control | endpoint: mean survival time, dose: 100.0 mg/kg/injection, schedule: Q01DX001 (ip), vehicle: saline with Tween-80 92 % of control

Cc1cc(=O)c(C(=O)O)c(C)[nH]1
inactive: [4] 86 % of control | [5] 86 % of control | [6] 91 % of control

O=Cc1cccc2ccc3ccccc3c12
inactive: endpoint: median survival time, dose: 50.0 mg/kg/injection, schedule: Q04DX002 (ip), vehicle: saline with Tween-80 111 % of control | endpoint: median survival time, dose: 100.0 mg/kg/injection, schedule: Q04DX002 (ip), vehicle: saline with Tween-80 100 % of control | endpoint: median survival time, dose: 200.0 mg/kg/injection, schedule: Q04DX002 (ip), vehicle: saline with Tween-80 111 % of control

O=C(O)C1C2C=CC3(O2)C(=O)N(Cc2ccccc2)C(=O)C13 (centres undefined)
inactive: [4] 95 % of control | [5] 103 % of control | [6] 98 % of control

CCCCCC(=O)C(C)CC (centres undefined)
inactive: [7] 96 % of control | [8] 104 % of control | [9] 94 % of control

O=c1cc[nH]cc1
inactive: endpoint: mean survival time, dose: 100.0 mg/kg/injection, schedule: Q01DX009 (ip), vehicle: saline with Tween-80 94 % of control | [10] 103 % of control | endpoint: mean survival time, dose: 200.0 mg/kg/injection, schedule: Q01DX009 (ip), vehicle: saline with Tween-80 100 % of control | [11] 97 % of control | endpoint: mean survival time, dose: 400.0 mg/kg/injection, schedule: Q01DX009 (ip), vehicle: saline with Tween-80 96 % of control | [12] 95 % of control

CCN(CCNc1ccc(C)c2sc3cc(Cl)ccc3c(=O)c12)CC(C)O (centres undefined)
inactive: endpoint: mean survival time, dose: 50.0 mg/kg/injection, schedule: Q01DX001 (ip), vehicle: saline 94 % of control | [1] 88 % of control | [10] 94 % of control | [2] 94 % of control | [11] 94 % of control | [3] 96 % of control | [12] 102 % of control

Cc1ccc(S(=O)(=O)OCCc2cccc3ccccc23)cc1
inactive: [1] 101 % of control | [2] 101 % of control | [3] 98 % of control

O=C(O)c1ccc(SSc2ccc(C(=O)O)cn2)nc1
inactive: endpoint: mean survival time, dose: 100.0 mg/kg/injection, schedule: Q01DX009 (ip), vehicle: saline 102 % of control | endpoint: mean survival time, dose: 200.0 mg/kg/injection, schedule: Q01DX009 (ip), vehicle: saline 96 % of control | endpoint: mean survival time, dose: 400.0 mg/kg/injection, schedule: Q01DX009 (ip), vehicle: saline 94 % of control

O=C(O)C(=O)O.O=C(O)C(=O)O.O=C(O)C(=O)O.[Fe]
inactive: endpoint: mean survival time, dose: 25.0 mg/kg/injection, schedule: Q04DX002 (ip), vehicle: saline with Tween-80 91 % of control | endpoint: mean survival time, dose: 50.0 mg/kg/injection, schedule: Q04DX002 (ip), vehicle: saline with Tween-80 91 % of control | [4] 87 % of control

Nc1ccc(CNC(=O)Nc2ccc(S(=O)(=O)F)cc2)cc1
inactive: endpoint: mean survival time, dose: 25.0 mg/kg/injection, schedule: Q04DX003 (ip), vehicle: saline with Tween-80 95 % of control | endpoint: mean survival time, dose: 50.0 mg/kg/injection, schedule: Q04DX003 (ip), vehicle: saline with Tween-80 91 % of control | [7] 110 % of control | [8] 92 % of control | [9] 92 % of control

CCCCCC(CN(C)C)C(=O)/C=C/c1ccc(Cl)c(Cl)c1 (centres undefined)
inactive: endpoint: mean survival time, dose: 6.25 mg/kg/injection, schedule: Q01DX009 (ip), vehicle: acetone 92 % of control | endpoint: mean survival time, dose: 12.5 mg/kg/injection, schedule: Q01DX009 (ip), vehicle: acetone 94 % of control | endpoint: mean survival time, dose: 25.0 mg/kg/injection, schedule: Q01DX009 (ip), vehicle: acetone 97 % of control

CC(=O)O.[Tl]
inactive: endpoint: mean survival time, dose: 20.0 mg/kg/injection, schedule: Q01DX001 (ip), vehicle: saline 112 % of control | endpoint: mean survival time, dose: 80.0 mg/kg/injection, schedule: Q01DX001 (ip), vehicle: saline 97 % of control | [1] 100 % of control | [2] 100 % of control

COC1=C2C[C@@H](C)C[C@@H](OC)[C@@H](O)[C@H](C)/C=C(\C)[C@@H](OC(N)=O)[C@H](OC)/C=C\C=C(/C)C(=O)NC(=CC1=O)C2=O
inactive: endpoint: mean survival time, dose: 0.12 mg/kg/injection, schedule: Q01DX009 (ip), vehicle: saline with Tween-80 102 % of control | endpoint: mean survival time, dose: 0.25 mg/kg/injection, schedule: Q01DX009 (ip), vehicle: saline with Tween-80 102 % of control | endpoint: mean survival time, dose: 0.5 mg/kg/injection, schedule: Q01DX009 (ip), vehicle: saline with Tween-80 98 % of control | endpoint: mean survival time, dose: 1.0 mg/kg/injection, schedule: Q01DX009 (ip), vehicle: saline with Tween-80 101 % of control | endpoint: mean survival time, dose: 2.0 mg/kg/injection, schedule: Q01DX009 (ip), vehicle: saline with Tween-80 112 % of control | endpoint: mean survival time, dose: 4.0 mg/kg/injection, schedule: Q01DX009 (ip), vehicle: saline with Tween-80 111 % of control | endpoint: mean survival time, dose: 5.0 mg/kg/injection, schedule: Q01DX001 (ip), vehicle: saline 104 % of control | endpoint: mean survival time, dose: 10.0 mg/kg/injection, schedule: Q01DX001 (ip), vehicle: saline 107 % of control

CC(=O)OCC1OC(c2nn(C(C)=O)c(C(N)=O)c2O)C(OC(C)=O)C1OC(C)=O (centres undefined)
active: endpoint: median survival time, dose: 25.0 mg/kg/injection, schedule: Q01DX005 (ip), vehicle: saline 153 % of control | [13] 166 % of control
inactive: endpoint: median survival time, dose: 100.0 mg/kg/injection, schedule: Q01DX005 (ip), vehicle: saline 96 % of control

c1ccc2sc(NN=c3c4ccccc4sc4ccccc34)nc2c1
inactive: endpoint: mean survival time, dose: 75.0 mg/kg/injection, schedule: Q01DX001 (ip), vehicle: other 107 % of control | endpoint: mean survival time, dose: 150.0 mg/kg/injection, schedule: Q01DX001 (ip), vehicle: other 100 % of control | endpoint: mean survival time, dose: 300.0 mg/kg/injection, schedule: Q01DX001 (ip), vehicle: other 94 % of control

NC(=S)N/N=C/c1ncccc1O
inactive: endpoint: mean survival time, dose: 3.13 mg/kg/injection, schedule: Q03HX024 (ip), vehicle: saline 117 % of control | endpoint: mean survival time, dose: 50.0 mg/kg/injection, schedule: Q03HX024 (ip), vehicle: saline 102 % of control | endpoint: median survival time, dose: 45.0 mg/kg/injection, schedule: Q04DX003 (ip), vehicle: suspension in saline 121 % of control | endpoint: median survival time, dose: 72.4 mg/kg/injection, schedule: Q03HX008 (ip), vehicle: suspension in saline 109 % of control | endpoint: median survival time, dose: 90.0 mg/kg/injection, schedule: Q04DX003 (ip), vehicle: suspension in saline 122 % of control | endpoint: median survival time, dose: 180.0 mg/kg/injection, schedule: Q03HX024 (ip), vehicle: saline 86 % of control | endpoint: median survival time, dose: 200.0 mg/kg/injection, schedule: Q01DX005 (ip), vehicle: suspension in saline 117 % of control | endpoint: median survival time, dose: 537.0 mg/kg/injection, schedule: Q04DX003 (ip), vehicle: suspension in saline 109 % of control | endpoint: median survival time, dose: 720.0 mg/kg/injection, schedule: Q04DX003 (ip), vehicle: suspension in saline 119 % of control
active: endpoint: median survival time, dose: 21.8 mg/kg/injection, schedule: Q03HX008 (ip), vehicle: suspension in saline 156 % of control | endpoint: median survival time, dose: 32.5 mg/kg/injection, schedule: Q03HX008 (ip), vehicle: suspension in saline 164 % of control | endpoint: median survival time, dose: 48.5 mg/kg/injection, schedule: Q03HX008 (ip), vehicle: suspension in saline 174 % of control | [13] 156 % of control | endpoint: median survival time, dose: 100.0 mg/kg/injection, schedule: Q01DX005 (ip), vehicle: suspension in saline 150 % of control | endpoint: median survival time, dose: 108.0 mg/kg/injection, schedule: Q04DX003 (ip), vehicle: suspension in saline 152 % of control | endpoint: median survival time, dose: 241.0 mg/kg/injection, schedule: Q04DX003 (ip), vehicle: suspension in saline 151 % of control | endpoint: median survival time, dose: 360.0 mg/kg/injection, schedule: Q04DX003 (ip), vehicle: suspension in saline 161 % of control

Nn1[nH]c(=O)c2nc[nH]c2c1=O
inactive: endpoint: median survival time, dose: 15.0 mg/kg/injection, schedule: Q01DX005 (ip), vehicle: saline with Tween-80 103 % of control | endpoint: median survival time, dose: 30.0 mg/kg/injection, schedule: Q01DX005 (ip), vehicle: saline with Tween-80 111 % of control | endpoint: median survival time, dose: 60.0 mg/kg/injection, schedule: Q01DX005 (ip), vehicle: saline with Tween-80 102 % of control
